Laboratory results as given in article PMC7156458, “Synthetic biology based construction of biological activity-related library of fungal decalin-containing diterpenoid pyrones” (Nature Communications, 2020).

Molecular target: Aβ42 (Homo sapiens, UniProt P05067)
Assay: Th-T (thioflavin-T) assay of Aβ42 aggregation
Type: biochemical
Conditions: for Th-T fluorescence of Aβ42 (sheet Fig. 7a), mean of three wells: head suffix _50 (concentration 50); for Th-T assay plate reading, mean of three wells (Supplementary Fig. 47): source data, Ab alone and No Ab as controls; for Th-T fluorescence, mean of three wells: Supplementary Fig. 47 source data

Sequence of Aβ42 (P05067 672-713): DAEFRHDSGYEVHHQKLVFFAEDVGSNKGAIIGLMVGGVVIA

C=C1CCC2C(C)(CCC=C(C)C)C(O)CCC2(C)C1Cc1c(OC)oc(C)c(C(=O)OC)c1=O (stereo not drawn) [Compound 14]
Th-T fluorescence of Aβ42 (sheet Fig. 7a), mean of three wells (reading M73): 2.8491
Th-T fluorescence of Aβ42 (sheet Fig. 7a), mean of three wells (reading M74): 2.743
Th-T fluorescence of Aβ42 (sheet Fig. 7a), mean of three wells (reading M75): 2.678
Th-T fluorescence of Aβ42 (sheet Fig. 7a), mean of three wells (reading M76): 2.6047
Th-T fluorescence of Aβ42 (sheet Fig. 7a), mean of three wells (reading M77): 2.524
Th-T fluorescence of Aβ42 (sheet Fig. 7a), mean of three wells (reading M78): 2.476
Th-T fluorescence of Aβ42 (sheet Fig. 7a), mean of three wells (reading M79): 2.356
Th-T fluorescence of Aβ42 (sheet Fig. 7a), mean of three wells (reading M80): 2.329
Th-T fluorescence of Aβ42 (sheet Fig. 7a), mean of three wells (reading M81): 2.257
Th-T fluorescence of Aβ42 (sheet Fig. 7a), mean of three wells (reading M82): 2.201
Th-T fluorescence of Aβ42 (sheet Fig. 7a), mean of three wells (reading M83): 2.154
Th-T fluorescence of Aβ42 (sheet Fig. 7a), mean of three wells (reading M84): 2.095
Th-T assay plate reading, mean of three wells (Supplementary Fig. 47) (measurement M1): 0.2816
Th-T assay plate reading, mean of three wells (Supplementary Fig. 47) (measurement M2): 0.2424
Th-T assay plate reading, mean of three wells (Supplementary Fig. 47) (measurement M3): 0.24
Th-T assay plate reading, mean of three wells (Supplementary Fig. 47) (measurement M4): 0.2537
Th-T assay plate reading, mean of three wells (Supplementary Fig. 47) (measurement M5): 0.2619
Th-T assay plate reading, mean of three wells (Supplementary Fig. 47) (measurement M6): 0.2823
Th-T assay plate reading, mean of three wells (Supplementary Fig. 47) (measurement M7): 0.2966
Th-T assay plate reading, mean of three wells (Supplementary Fig. 47) (measurement M8): 0.3078
Th-T assay plate reading, mean of three wells (Supplementary Fig. 47) (measurement M9): 0.3225
Th-T assay plate reading, mean of three wells (Supplementary Fig. 47) (measurement M10): 0.3472
Th-T assay plate reading, mean of three wells (Supplementary Fig. 47) (measurement M11): 0.3856
Th-T assay plate reading, mean of three wells (Supplementary Fig. 47) (measurement M12): 0.4563
Th-T assay plate reading, mean of three wells (Supplementary Fig. 47) (measurement M13): 0.5559
Th-T assay plate reading, mean of three wells (Supplementary Fig. 47) (measurement M14): 0.6968
Th-T assay plate reading, mean of three wells (Supplementary Fig. 47) (measurement M15): 0.8869
Th-T assay plate reading, mean of three wells (Supplementary Fig. 47) (measurement M16): 1.062
Th-T fluorescence, mean of three wells (Fig. 7a) (reading M107, compound at 10 (head suffix _10)): 2.856
Th-T fluorescence, mean of three wells (Fig. 7a) (reading M107, compound at 20 (head suffix _20)): 1.717
Th-T fluorescence, mean of three wells (Fig. 7a) (reading M107, compound at 50 (head suffix _50)): 1.263
Th-T fluorescence, mean of three wells (Fig. 7a) (reading M108, compound at 10 (head suffix _10)): 2.848
Th-T fluorescence, mean of three wells (Fig. 7a) (reading M108, compound at 20 (head suffix _20)): 1.693
Th-T fluorescence, mean of three wells (Fig. 7a) (reading M108, compound at 50 (head suffix _50)): 1.239
Th-T fluorescence, mean of three wells (Fig. 7a) (reading M109, compound at 10 (head suffix _10)): 2.86
Th-T fluorescence, mean of three wells (Fig. 7a) (reading M109, compound at 20 (head suffix _20)): 1.668
Th-T fluorescence, mean of three wells (Fig. 7a) (reading M109, compound at 50 (head suffix _50)): 1.221
Th-T fluorescence, mean of three wells (Fig. 7a) (reading M110, compound at 10 (head suffix _10)): 2.89
Th-T fluorescence, mean of three wells (Fig. 7a) (reading M110, compound at 20 (head suffix _20)): 1.691
Th-T fluorescence, mean of three wells (Fig. 7a) (reading M110, compound at 50 (head suffix _50)): 1.198
Th-T fluorescence, mean of three wells (Fig. 7a) (reading M111, compound at 10 (head suffix _10)): 2.887
Th-T fluorescence, mean of three wells (Fig. 7a) (reading M111, compound at 20 (head suffix _20)): 1.674
Th-T fluorescence, mean of three wells (Fig. 7a) (reading M111, compound at 50 (head suffix _50)): 1.171
Th-T fluorescence, mean of three wells (Fig. 7a) (reading M112, compound at 10 (head suffix _10)): 2.867
Th-T fluorescence, mean of three wells (Fig. 7a) (reading M112, compound at 20 (head suffix _20)): 1.668
Th-T fluorescence, mean of three wells (Fig. 7a) (reading M112, compound at 50 (head suffix _50)): 1.153
Th-T fluorescence, mean of three wells (Fig. 7a) (reading M113, compound at 10 (head suffix _10)): 2.843
Th-T fluorescence, mean of three wells (Fig. 7a) (reading M113, compound at 20 (head suffix _20)): 1.686
Th-T fluorescence, mean of three wells (Fig. 7a) (reading M113, compound at 50 (head suffix _50)): 1.142
Th-T fluorescence, mean of three wells (Fig. 7a) (reading M114, compound at 10 (head suffix _10)): 2.88
Th-T fluorescence, mean of three wells (Fig. 7a) (reading M114, compound at 20 (head suffix _20)): 1.678
Th-T fluorescence, mean of three wells (Fig. 7a) (reading M114, compound at 50 (head suffix _50)): 1.107
Th-T fluorescence, mean of three wells (Fig. 7a) (reading M115, compound at 10 (head suffix _10)): 2.899
Th-T fluorescence, mean of three wells (Fig. 7a) (reading M115, compound at 20 (head suffix _20)): 1.649
Th-T fluorescence, mean of three wells (Fig. 7a) (reading M115, compound at 50 (head suffix _50)): 1.096
Th-T fluorescence, mean of three wells (Fig. 7a) (reading M116, compound at 10 (head suffix _10)): 2.891
Th-T fluorescence, mean of three wells (Fig. 7a) (reading M116, compound at 20 (head suffix _20)): 1.656
Th-T fluorescence, mean of three wells (Fig. 7a) (reading M116, compound at 50 (head suffix _50)): 1.094
Th-T fluorescence, mean of three wells (Fig. 7a) (reading M117, compound at 10 (head suffix _10)): 2.891
Th-T fluorescence, mean of three wells (Fig. 7a) (reading M117, compound at 20 (head suffix _20)): 1.6485
Th-T fluorescence, mean of three wells (Fig. 7a) (reading M117, compound at 50 (head suffix _50)): 1.063
Th-T fluorescence, mean of three wells (Fig. 7a) (reading M118, compound at 10 (head suffix _10)): 2.882
Th-T fluorescence, mean of three wells (Fig. 7a) (reading M118, compound at 20 (head suffix _20)): 1.636
Th-T fluorescence, mean of three wells (Fig. 7a) (reading M118, compound at 50 (head suffix _50)): 1.027
Th-T fluorescence, mean of three wells (Fig. 7a) (reading M119, compound at 10 (head suffix _10)): 2.895
Th-T fluorescence, mean of three wells (Fig. 7a) (reading M119, compound at 20 (head suffix _20)): 1.645
Th-T fluorescence, mean of three wells (Fig. 7a) (reading M119, compound at 50 (head suffix _50)): 1.02
Th-T fluorescence, mean of three wells (Fig. 7a) (reading M120, compound at 10 (head suffix _10)): 2.912
Th-T fluorescence, mean of three wells (Fig. 7a) (reading M120, compound at 20 (head suffix _20)): 1.644
Th-T fluorescence, mean of three wells (Fig. 7a) (reading M120, compound at 50 (head suffix _50)): 1.015
Th-T fluorescence, mean of three wells (Fig. 7a) (reading M121, compound at 10 (head suffix _10)): 2.89
Th-T fluorescence, mean of three wells (Fig. 7a) (reading M121, compound at 20 (head suffix _20)): 1.621
Th-T fluorescence, mean of three wells (Fig. 7a) (reading M121, compound at 50 (head suffix _50)): 1.008
Th-T fluorescence, mean of three wells (Fig. 7a) (reading M122, compound at 10 (head suffix _10)): 2.911
Th-T fluorescence, mean of three wells (Fig. 7a) (reading M122, compound at 20 (head suffix _20)): 1.5939
Th-T fluorescence, mean of three wells (Fig. 7a) (reading M122, compound at 50 (head suffix _50)): 0.9934
Th-T fluorescence, mean of three wells (Fig. 7a) (reading M123, compound at 10 (head suffix _10)): 2.8989
Th-T fluorescence, mean of three wells (Fig. 7a) (reading M123, compound at 20 (head suffix _20)): 1.589
Th-T fluorescence, mean of three wells (Fig. 7a) (reading M123, compound at 50 (head suffix _50)): 0.9605
Th-T fluorescence, mean of three wells (Fig. 7a) (reading M124, compound at 10 (head suffix _10)): 2.906
Th-T fluorescence, mean of three wells (Fig. 7a) (reading M124, compound at 20 (head suffix _20)): 1.657
Th-T fluorescence, mean of three wells (Fig. 7a) (reading M124, compound at 50 (head suffix _50)): 0.9345
Th-T fluorescence, mean of three wells (Fig. 7a) (reading M125, compound at 10 (head suffix _10)): 2.918
Th-T fluorescence, mean of three wells (Fig. 7a) (reading M125, compound at 20 (head suffix _20)): 1.601
Th-T fluorescence, mean of three wells (Fig. 7a) (reading M125, compound at 50 (head suffix _50)): 0.9471
Th-T fluorescence, mean of three wells (Fig. 7a) (reading M126, compound at 10 (head suffix _10)): 2.913
Th-T fluorescence, mean of three wells (Fig. 7a) (reading M126, compound at 20 (head suffix _20)): 1.6231
Th-T fluorescence, mean of three wells (Fig. 7a) (reading M126, compound at 50 (head suffix _50)): 0.9219
Th-T fluorescence, mean of three wells (Fig. 7a) (reading M127, compound at 10 (head suffix _10)): 2.92
Th-T fluorescence, mean of three wells (Fig. 7a) (reading M127, compound at 20 (head suffix _20)): 1.639
Th-T fluorescence, mean of three wells (Fig. 7a) (reading M127, compound at 50 (head suffix _50)): 0.9074
Th-T fluorescence, mean of three wells (Fig. 7a) (reading M128, compound at 10 (head suffix _10)): 2.916
Th-T fluorescence, mean of three wells (Fig. 7a) (reading M128, compound at 20 (head suffix _20)): 1.631
Th-T fluorescence, mean of three wells (Fig. 7a) (reading M128, compound at 50 (head suffix _50)): 0.8816
Th-T fluorescence, mean of three wells (time-course reading M97): 1.587
Th-T fluorescence, mean of three wells (time-course reading M98): 1.593
Th-T fluorescence, mean of three wells (time-course reading M99): 1.591
Th-T fluorescence, mean of three wells (time-course reading M100): 1.596
Th-T fluorescence, mean of three wells (time-course reading M101): 1.605
Th-T fluorescence, mean of three wells (time-course reading M102): 1.603
Th-T fluorescence, mean of three wells (time-course reading M103): 1.613
Th-T fluorescence, mean of three wells (time-course reading M104): 1.605
Th-T fluorescence, mean of three wells (time-course reading M105): 1.614
Th-T fluorescence, mean of three wells (time-course reading M106): 1.61
Th-T fluorescence, mean of three wells (time-course reading M107): 1.627
Th-T fluorescence, mean of three wells (time-course reading M108): 1.622
Th-T fluorescence, mean of three wells (time-course reading M109): 1.637
Th-T fluorescence, mean of three wells (time-course reading M110): 1.6366
Th-T fluorescence, mean of three wells (time-course reading M111): 1.648
Th-T fluorescence, mean of three wells (time-course reading M112): 1.658
Th-T fluorescence, mean of three wells (time-course reading M113): 1.641
Th-T fluorescence, mean of three wells (time-course reading M114): 1.648
Th-T fluorescence, mean of three wells (time-course reading M115): 1.646
Th-T fluorescence, mean of three wells (time-course reading M116): 1.651
